Test results from ChEMBL document CHEMBL1671658, “VanA-type vancomycin-resistant Staphylococcus aureus” (2009).
≈ marks a conversion by molar mass, not a printed value.

How the values were obtained:
Staphylococcus aureus [1] = test: Antibacterial activity against VanA-type vancomycin-resistant Staphylococcus aureus isolate 1 harboring vanA operon
Staphylococcus aureus [2] = test: Antibacterial activity against VanA-type vancomycin-resistant Staphylococcus aureus isolate 2 harboring vanA operon
Staphylococcus aureus [3] = test: Antibacterial activity against high-level-resistant vancomycin-resistant Staphylococcus aureus harboring Tn1546 element
Staphylococcus aureus [4] = test: Antibacterial activity against VanA-type vancomycin-resistant Staphylococcus aureus isolate 3 harboring vanA operon

`CN[C@H](CC(C)C)C(=O)N[C@H]1C(=O)N[C@@H](CC(N)=O)C(=O)N[C@H]2C(=O)N[C@H]3C(=O)N[C@H](C(=O)N[C@H](C(=O)O)c4cc(O)cc(O)c4-c4cc3ccc4O)[C@H](O)c3ccc(c(Cl)c3)Oc3cc2cc(c3O[C@@H]2O[C@H](CO)[C@@H](O)[C@H](O)[C@H]2O[C@H]2C[C@](C)(N)[C@H](O)[C@H](C)O2)Oc2ccc(cc2Cl)[C@H]1O` [VANCOMYCIN] showed an MIC (Staphylococcus aureus [1]) greater than 256 µg/mL, an MIC (Staphylococcus aureus [2]) of 32 µg/mL (≈ 22.1 µM) and an MIC (Staphylococcus aureus [3]) greater than 256 µg/mL. It also gave an MIC (Staphylococcus aureus [4]) of 64 µg/mL (≈ 44.2 µM).
